Results on two compounds are retold here after US8043815B2, “Methods for analysis of PDEF and survivin as interconnected cancer biomarkers and targets for personalized medicine” (Health Research, Inc., priority 2007, dated 2011).

What all share (format): cell-based
The subject of test [1] is PDEF-negative ovarian cancer cell lines. Description: Western blot of PDEF and survivin expression in PDEF-negative ovarian cancer cell lines treated with methylation inhibitor. On the procedure:
FIGS. 6A and 6B provide photographic representations of results obtained from Western blotting analysis of PDEF expression in PDEF-negative ovarian cancer cell lines treated with and without 5-aza-2-deoxycytidine (5-Aza-dC) for 5 days at 1 μM (FIG. 6A) or different concentrations of 5-Aza-dC (FIG. 6B).
We analyzed whether the loss of PDEF expression in cancer tissues during cancer progression is the result of epigenetic methylation of the PDEF gene. Four PDEF-negative ovarian cancer cell lines were treated with and without the methylation inhibitor 5-aza-2-deoxycytidine (5-Aza-dC) for 5 days at 1 μM (FIG. 6A) or different concentration of 5-Aza-dC (FIG. 6B). Cells were then lysed and analyzed for PDEF expression by Western blots.
On the technique in general: A western blot detects proteins with antibodies after separation by electrophoresis.

The subject of test [2] is HCT116 parental colon cancer cells. As to the kind of experiment: Western blot of survivin and PDEF expression in HCT116 parental colon cancer cells. The note with it: treated for 3 days. Here is the method: (§1) FIG. 7 provides a photographic representation of results obtained from differential modulation of survivin and PDEF expression in an HCT116 parental colon cancer cell line, versus in an HCT116 cell line in which both the DNMT1 and DNMT3b DNA methyltransferases have been knocked out. Both HCT116 parental and double knockout (DNMT1^−/−/DNMT3B^−/−) colon cancer cell lines were treated with and without the methylation inhibitor 5-Aza-dC for 3 days as shown. Cells were lysed and analyzed for the expression of survivin and PDEF by western blots. Actin is the internal control of protein loading.
(§2) Since it is know that the survivin gene is not methylated, despite our identification of a CpG island in the survivin gene, this Example further supports that demethylation of PDEF via a DNA methylation inhibitor can facilitate downregulation of survivin expression.

Test [3] has as its system HCT116 colon cancer cells with double knockout (DKO) of DNMT1 and DNMT3b. Description: Western blot of survivin and PDEF expression in HCT116 DNMT1/DNMT3b double knockout cells. The settings on record: treated for 3 days. Here is the method: as §1, §2
The subject of test [4] is MDA-MB-231 breast cancer cells. As to the kind of experiment: Cell growth and cell death of MDA-MB-231 cells after sequential MSA / Zebularine treatment (digital images). The note with it: images 48 hours after new medium replacement. On the procedure: FIG. 8 provides a photographic representation of results showing a synergistic effect of DNA methylation inhibitors in combination with DNA methylation inducers/promoters on massive cancer cell death. Sequential treatment of MDA-MB-231 breast cancer cells with methylseleninic acid (MSA, a DNA methylation inducer/promoter) for 48 hours and Zebularine (a DNA methylation inhibitor) for 24 hours alone or in combination as shown. Growth medium with drugs was replaced with complete new medium without drugs 24 hour after Zebularine treatment. Images were then taken using a digital camera 48 hours after new medium replacement.
Sequential treatment of MDA-MB-231 breast cancer cells with methylseleninic acid (MSA, a DNA methylation inducer/promoter) for 48 hours and Zebularine (a DNA methylation inhibitor) for 24 hours alone or in combination as shown. Growth medium with drugs was replaced with complete new medium without drugs 24 hour after Zebularine treatment. Images were then taken using a digital camera 48 hours after new medium replacement.

`Nc1ncn([C@H]2C[C@H](O)[C@@H](CO)O2)c(=O)n1` [5-Aza-dC, 5-aza-2-deoxycytidine]: the “PDEF expression by western blots” value in test [1] (four PDEF-negative ovarian cancer cell lines, 5 days at 1 μM or different concentration) is “two of the four ovarian cancer cell lines showed restored expression of PDEF”; in test [2] it was “induces PDEF expression”; in test [3] it was “no effect”. Besides, the “expression of survivin by Western blots” value in test [1] (ovarian cancer cell lines with restored PDEF expression, different concentrations of 5-Aza-dC, 5 days (FIG. 6B)) is on record as “reduces or eliminates the expression of survivin”. The “survivin expression by western blots” value in test [2] is on record as “decreases survivin expression”; in test [3], “no effect”.
`C[Se](=O)O` [MSA, methylseleninic acid]: in test [4] (MSA 48 hours, Zebularine 24 hours, alone), the cell growth inhibition entry is given as “only moderately inhibit cell growth”. Besides, the “induction of cell death” value in test [4] (alone or sequential combination (MSA then Zebularine)) was “without induction of cell death”.
